Data: ChEMBL document CHEMBL1641556, “MDCK cell permeability characteristics of a sulfenamide prodrug: strategic implications in considering sulfenamide prodrugs for oral delivery of NH-acids” (Bioorg Med Chem Lett, 2011)

Tests used:
[1] = Hydrolytic stability of the compound assessed as half life at pH 6; type: physicochemical; details: buffer
[2] = Apparent permeability from apical to basolateral side of MDCK cells; type: ADME, cell-based, Canis lupus familiaris; details: dog
[3] = Apparent permeability from basolateral to apical side of MDCK cells; type: ADME, cell-based, Canis lupus familiaris; details: dog

t1/2 [1]	Papp A→B [2]	Papp B→A [3]	Structure (SMILES)
6.3 yr			N[C@@H](CSNC(=O)c1ccccc1)C(=O)O
	9 ×10⁻⁶ cm/s	10.6 ×10⁻⁶ cm/s	CC(=O)NC[C@H]1CN(c2ccc(N3CCOCC3)c(F)c2)C(=O)O1 [LINEZOLID]
